Measurements published in patent publication US20200254110A1, “LIGAND-CONJUGATES AND METHODS FOR TARGETED RECEPTOR-MEDIATED CELLULAR UPTAKE” (priority 2017, published 2020).
Ends that are not written are not given here.

How the values were obtained:
PAR2 = molecular target: T1, PAR2 (Homo sapiens, UniProt P55085); conditions: PAR2 agonist peptide, reference [1]; cited from earlier work
T1 sequence (P55085 26-397): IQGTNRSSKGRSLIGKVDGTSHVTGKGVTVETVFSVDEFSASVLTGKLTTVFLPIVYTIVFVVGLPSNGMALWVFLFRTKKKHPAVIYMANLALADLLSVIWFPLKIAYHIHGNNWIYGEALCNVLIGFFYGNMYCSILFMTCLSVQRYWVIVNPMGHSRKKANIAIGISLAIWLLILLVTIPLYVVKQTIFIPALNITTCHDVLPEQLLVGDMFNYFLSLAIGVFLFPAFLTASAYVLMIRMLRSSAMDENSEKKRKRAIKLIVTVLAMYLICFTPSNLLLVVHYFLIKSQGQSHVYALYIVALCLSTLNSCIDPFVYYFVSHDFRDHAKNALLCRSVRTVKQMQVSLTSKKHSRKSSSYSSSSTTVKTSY

[1] = test system: PAR2 expressing keratinocytes (HaCaT); assay: PAR2 mediated endocytosis assay (fluorescence microscopy); format: cell-based, human; conditions: keratinocytes serum-starved 24 h, 2 h incubation, FIG. 5
Procedure: SOP: PAR2 Mediated Endocytosis Assay • Culture HaCaT (cultured human keratinocytes) cells in DMEM (Dulbecco's Modified Eagle Medium, phenol red free!) supplemented with 10% (w/v) FCS and antibiotics (gentamicin: 50 μg/mL final conc.) in a 10 cm cell culture plate at a confluency (one cell layer on the plate) of 60-70% • Count the cells and dilute to 1-2×10^4 cells/mL in DMEM (phenol red free!) • Incubate 1 mL of the diluted cell suspension in each well of a 24-well cell culture plate supplemented with 10% (w/v) FCS (containing gentamicin at a final conc. of 50 μg/mL) on a glass coverslip for 24 h at 37° C., 5% CO2 • Discard the supernatant and carefully wash the cells 3 times with 500 μL DMEM (phenol red free, without FCS!) • Incubate the cells for 24 h at 37° C., 5% CO2 (DMEM without serum addition, phenol red free only!) • Add CaCl2 solution to reach a final concentration of 1.5 mM in the medium when using Ca^2+-free medium (induction of cell differentiation) • For PAR2 activation […]
An endocytosis assay was used to test whether the PAR ligand-conjugate, i.e. PAR2 agonist P8 enhances the uptake of IONPs into PAR, here PAR2 expressing keratinocytes, when immobilized to the surface of the IONP. […] After the incubation, cells were washed thoroughly for several times and internalization of the modified IONPs was analyzed employing fluorescent microscopy (FIG. 5, lower right corner). […]

[2] = molecular target: T2, PAR2-expressing HEK293 (human embryonic kidney) cells (Homo sapiens, UniProt P55085); assay: Intracellular Ca2+ mobilization assay (Indo-1 AM, flow cytometry); format: cell-based; conditions: for shift in relative fluorescence intensity (RFI) of the cells relative to the untreated sample (PAR2 activation, intracellular calcium mobilization): HEK293 cells preincubated with Indo-1 AM, P6 100-200 μM, P8 200-400 μM, flow cytometry; for relative potential of PAR2 activation (rank order): HEK293 cells, calcium mobilization, FIG. 4 A-C
T2 construct: PAR2-expressing HEK293 (human embryonic kidney) cells; endogenous in cells; host or cells: HEK293
T2 sequence (P55085 26-397): T1 sequence (P55085 26-397)
Source text: To test whether the modified PAR ligands such as the synthesis intermediates as well as the final compound P8 are capable of binding and activating PAR in vitro a calcium-based cell activation assay was established on the basis of the assay for measurement of intracellular Ca^2+ mobilization described in Kelm et al., J. Exp. Med. 195 (2002), 1207-1213, which can be used directly on PAR, i.e. PAR2 expressing cells.
SOP: Measurement of Intracellular Ca^2+ Mobilization • Thaw 1 aliquot of frozen (from liquid N2) HEK293 cells (careful at RT) • Provide 10 mL of DMEM (Dulbecco's Modified Eagle Medium, phenol red free!) containing 10% FCS, antibiotics (50 μg/mL gentamicin final conc.) on a 10 cm cell culture plate • Add cells to the plate and grow them at 37° C., 8% CO2 until 60-70% confluency (one cell layer on the plate) • Wash the cells 3× with 10 mM PBS (phosphate buffer saline), pH 7.4 • Add 10 mL of fresh DMEM (phenol red free!) and carefully resuspend the cells • Count the cells employing a flow cytometer and dilute to 3×10^5 cells/mL in DMEM (phenol red free!) • Pipette 1 ml of the diluted cell suspension in each well of a 24-well cell culture plate • Add 30 μL of Pluronic® F-127 (0.01% (v/v) final conc., P2443 Sigma-Aldrich) and 15 μL of Indo 1-AM ester in DMSO (15 μM final conc., I3261 Sigma-Aldrich) to the cell suspension • Incubate for 45 min at 37° C., 8% CO2, in the dark • Henceforward keep the cells in the dark • Remove cells from the culture plate and subsequently wash 1× with 15 mL of HEPES buffer (100 mM HEPES, pH 7.4) to remove excess Indo 1-AM ester and resuspend cells in 1 mL HEPES buffer (100 mM HEPES, pH 7.4) • Add 10 μL propidium iodide (PI: final conc. 100 ng/mL, P4864 Sigma-Aldrich) to the cell suspension and immediately perform flow cytometry analysis • Perform flow cytometry analysis using the appropriate laser/filter sets (CyFlow® Cube 8 Sysmex):
Indo 1-AM: λexcitation,max 345 nm, λemission,max 400 nm (Ca^2+ bound), λemission,max 475 nm (Ca^2+ free), (excitation: UV-LED, emission: FL4 channel, 455/50 nm)
PI: λexcitation,max 535 nm (DNA-bound), λemission,max 617 nm (DNA-bound), (excitation: 488 nm laser, emission: FL2 channel, 590/50 nm) • For PAR-2 activation, add the appropriate amount of activator (SLIGRL: 50 μM final conc., trypsin: 40 Units (TRYPSEQM-RO Roche), P6 or P8: 100-200 μM or 200-400 μM respectively) to the cell suspension (containing 15 nmol Indo 1-AM ester) and immediately perform flow cytometry analysis • Determine the decrease in relative fluorescence intensity (due to the shift from unbound towards calcium bound Indo 1-AM complexes) after PAR mediated activation of HEK293 cells
As described above, activation of PARs leads to the initiation of a variety of signal transduction pathways and downstream signaling. One consequence of PAR activation presents the intracellular calcium mobilization from storage reservoirs of the endoplasmic reticulum (ER) and mitochondria into the cytosol. […] In the present assay the Indo-1 AM fluorophore was used, which is an esterified derivative of Indo-1 and thus able to penetrate the cell membrane. Upon uptake into the cytoplasm, present esterases will transfer the ester into the carboxylate, which is then trapped in the cell due to its obtained negative charges. A shift in Indo-1 AM emission from 480 nm (calcium free Indo-1 AM) to 400 nm (calcium bound Indo-1 AM) can be detected employing a flow cytometer, when bound to free calcium. […]

| Substance | effectiveness relative to SLIGRL-NH2 (PAR2) | uptake (internalization) into cultured keratinocytes [1] | shift in relative fluorescence intensity (RFI) of the cells relative to the untreated sample (PAR2 activation, intracellular calcium mobilization) [2] | relative potential of PAR2 activation (rank order) [2] |
| --- | --- | --- | --- | --- |
| 2-furoyl(1)L(2)IG(4)RL(6)-NH2 | 10-20 fold | – | – | – |
| P8 modified IONPs (SLIGRL; not fully specified (C-terminus); also: P8 modified IONPs (on iron oxide nanoparticles)) | – | successful uptake | – | – |
| NH2-DEG-SLIGRL [P6] | – | – | induced a shift in relative fluorescence intensity | decreased from SLIGRL-NH2, to P6 and further to P8 |
| Fam5/6-Lysine-DEG-SLIGRL [P8] | – | – | induced a shift in relative fluorescence intensity | decreased from SLIGRL-NH2, to P6 and further to P8 |
| SerLeuIleGlyArgLeu-NH2 (SLIGRL-NH2) [PAR2 agonist hexapeptide, native tethered ligand of rodent PAR2, reference compound] | – | – | – | decreased from SLIGRL-NH2, to P6 and further to P8 |
